According to US10336768B2, “Pyrimidine compounds and methods using the same” (Yuma Therapeutics, Inc., priority 2014, dated 2019):
“And” between values parts separate entries of the source, which are not always exact repeats. Equal entries are not always repeated. Where two headings read alike, the source gives them in different places. Marks after values point to notes of the source that are not given here.

Assays:
SH-SY5Y-hTAU441 cells = test: Cytotoxicity assay (MTT); assay type: cell-based; conditions: FIG. 6A
Experimental: SH-SY5Y-hTAU441 cell viability was determined using the MTT assay. […] SH-SY5Y cell viability may also be measured after 24 and 48 h with the CellTiter-Glo® assay that measures ATP-levels. In addition, cytotoxicity may be assessed using the Celigo® with live cell microscopic imaging and a GE InCell Analyzer 2000 to measure multiple outcomes including apoptosis markers, membrane permeability, and mitochondrial activity.

[1] = Mouse pharmacokinetics, plasma levels (LC-MS/MS); assay type: in vivo; conditions: for AUC(0-t): read-out: AUC(0-8 h); for half-life: read-out: Half life (t1/2) (converted)
Experimental: Plasma and brain samples were taken pre-dose and at post dose time points of pre-dose, 15 and 30 minutes, 1, 2, and 8 hours. The pre-dose group was represented by 5 animals, whereas the post-dose groups were represented by 3 animals.
Bioanalysis of mouse plasma samples for compound 20 was conducted by protein precipitation and LC-MS/MS with compound 22 as the internal standard. The method was based on a ‘generic assay’ and some method development was conducted to tailor that assay to the particular compound and internal standard. The eventual non-GLP assay was first tested by analyzing a bioanalytical run with spiked mouse plasma samples. The qualification run passed by the run acceptance criteria (see below). Bioanalysis was then conducted of plasma sample extracts and of brain sample homogenate extracts, using a calibration and quality control samples spiked in mouse plasma. The assay is described below.
Compound 20 and compound 22 were extracted from the mouse plasma matrix by protein precipitation. To 20.0 μL of sample was added 10.0 μL of internal standard working solution (1000 ng/mL in MeOH) and 200 μL of MeCN. The mixture was vortexed (5 sec) and centrifuged (14000 rpm, 5 min). The supernatant was then recovered and evaporated to dryness. The residue was redissolved in 100 μL of redissolving solution (80:20 v:v of mobile phases A:B). For analysis, 20.0 μL was injected in to the LC-MS/MS system.
All chromatography was done with a type 1100 liquid chromatograph (Agilent), equipped with an auto-injector. The analytical column was an Xbridge C18 3.5 μm 2.1×50 mm (Waters), employed at 50° C. The mobile phase was a gradient, composed of solvent A:1 g/L ammonium acetate in Milli-Q water, and solvent B: MeCN.
All experiments were done on an API 3000 triple quadrupole instrument (AB Sciex), operated in positive turbo-ionspray mode (‘TIS+’). The instrument parameters had been optimized during method development.
[…] Two sets of calibration samples were used, one set placed before and the other placed after the study samples. In addition, QC samples at 5 levels (two samples at each level) were included in the run, as performance indicators and for run acceptance.
Evaluation of pharmacokinetic parameters was conducted by calculation from the mean concentration (n=5 pre-dose, n=3 post-dose) at each time point.

[2] = mouse, plasma, Table 11, footnote: excluding IRN12 result
[3] = mouse, plasma, Table 12, footnote: including IRN12 result

Nc1nc(-c2c(Cl)cc(Cl)c3c2CCO3)c2[nH]ccc2n1 [compound 20, 4-(5,7-Dichloro-2,3-dihydrobenzofuran-4-yl)-5H-pyrrolo[3,2-d]pyrimidin-2-amine]
cell viability (SH-SY5Y-hTAU441 cells): did not affect cell viability | Mean Group Concentration, plasma ([1]; 0.25 h): ^a Excluding IRN 12 result: 14950 ng/mL | Plasma concentration, individual animals ([1]; 15 minutes post dose (B_0.25), values above 8000 ng/mL out of range, indicative): 17,900 ^b ng/mL and 12,000 ^b ng/mL | Plasma concentration, individual animals ([1]; 30 minutes post dose (C_0.5), out of range (>8000 ng/mL), indicative): 11,500 ^b ng/mL and 10,500 ^b ng/mL and 11,100 ^b ng/mL | Plasma concentration, individual animals ([1]; 1 hour post dose (D_1)): 7,130 ng/mL and 7,470 ng/mL | Plasma concentration, individual animals ([1]; 2 hours post dose (E_2)): 4,180 ng/mL and 4,440 ng/mL | Plasma concentration, individual animals ([1]; 8 hours post dose (F_8)): 99.3 ng/mL and 22.5 ng/mL and 21.9 ng/mL | Kelimination ([1]; Table 11, footnote: excluding IRN12 result): 0.725 per hour (h^−1) | Kelimination ([1]; Table 12, footnote: including IRN12 result): 0.730 per hour (h^−1) | concentration at 0.25 h ([1]; mouse, plasma, 0.25 h, n=3 incl. IRN 12, read-out: Mean Group Concentration, plasma): 9970 ng/mL | concentration at 15 min ([1]; mouse, plasma, 15 minutes post dose (B_0.25), values above 8000 ng/mL out of range, indicative, read-out: Plasma concentration, individual animals): 2.66 ng/mL | concentration at 0.5 h ([1]; mouse, plasma, 0.50 h, read-out: Mean Group Concentration, plasma): 11000 ng/mL | concentration at 1 h ([1]; mouse, plasma, 1.00 h, read-out: Mean Group Concentration, plasma): 7160 ng/mL | concentration at 1 h ([1]; mouse, plasma, 1 hour post dose (D_1), read-out: Plasma concentration, individual animals): 6890 ng/mL | concentration at 2 h ([1]; mouse, plasma, 2.00 h, read-out: Mean Group Concentration, plasma): 4260 ng/mL | concentration at 2 h ([1]; mouse, plasma, 2 hours post dose (E_2), read-out: Plasma concentration, individual animals): 4150 ng/mL | concentration at 8 h ([1]; mouse, plasma, 8.00 h, read-out: Mean Group Concentration, plasma): 47.9 ng/mL | AUC(0-inf) [1, 2]: 27100 ng·h/mL | Cmax [1, 2]: 11000 ng/mL | Tmax [1, 2]: 30 min | AUC(0-t) [1, 2]: 27000 ng·h/mL | half-life [1, 2]: 57.6 min | AUC(0-inf) [1, 3]: 28300 ng·h/mL | Cmax [1, 3]: 15000 ng/mL | Tmax [1, 3]: 15 min | AUC(0-t) [1, 3]: 28300 ng·h/mL | half-life [1, 3]: 57 min
